# Data reported in the PolyMetriX glass transition set.
# ± gives the standard deviation of the reports.
row,glass transition temperature [°C],SMILES
1,400.00,*c1ccc(-c2ccc(N3C(=O)c4cc5c(cc4C3=O)C(c3ccccc3)(C(F)(F)F)c3cc4c(cc3O5)C(=O)N(*)C4=O)cc2C(F)(F)F)c(C(F)(F)F)c1 (repeat unit)
2,236.00,*Oc1cccc(C(C)(C)c2ccc(Oc3cccc4c3C(=O)N(c3cccc(N5C(=O)c6cccc(*)c6C5=O)c3)C4=O)cc2)c1 (repeat unit)
3,278.00,*Oc1c(F)c(F)c(Oc2c(F)c(F)c3c(c2F)C(=O)N(c2c(F)c(F)c(Sc4c(F)c(F)c(N5C(=O)c6c(F)c(*)c(F)c(F)c6C5=O)c(F)c4F)c(F)c2F)C3=O)c(F)c1F (repeat unit)
4,205.50 ± 2.1,*Oc1ccc2c(c1)C(=O)N(c1cccc(Oc3ccc(C(=O)c4ccc(Oc5cccc(N6C(=O)c7cccc(*)c7C6=O)c5)cc4)cc3)c1)C2=O (repeat unit)
5,241.00,*Oc1cccc2c1C(=O)N(c1cccc(S(=O)(=O)c3cccc(N4C(=O)c5cccc(*)c5C4=O)c3)c1)C2=O (repeat unit)
6,215.00,*Oc1cccc(Oc2ccc(Oc3ccc4c(c3)C(=O)N(c3ccc(Oc5ccc(N6C(=O)c7ccc(*)cc7C6=O)cc5)cc3)C4=O)cc2)c1 (repeat unit)
7,287.00,*C(=O)c1ccc2c(c1)C(=O)N(c1ccc(Oc3ccccc3N3C(=O)c4ccc(*)cc4C3=O)cc1)C2=O (repeat unit)
8,278.00,*c1ccc2c(c1)C(=O)N(c1ccc(-c3ccc(N4C(=O)c5ccc(C(*)(C(F)(F)F)C(F)(F)F)cc5C4=O)cc3-c3cccc(C(F)(F)F)c3)c(-c3cccc(C(F)(F)F)c3)c1)C2=O (repeat unit)
9,321.00,*c1ccc(C(=O)c2ccccc2-n2c(=O)c3cc4c(=O)n(*)c(=O)c4cc3c2=O)cc1 (repeat unit)

# Further lines, the compound ahead of its results:
row,SMILES,glass transition temperature [°C]
1,*Oc1cccc(S(=O)(=O)c2ccc(Oc3ccc4c(c3)C(=O)N(c3cccc(N5C(=O)c6ccc(*)cc6C5=O)c3)C4=O)cc2)c1 (repeat unit),265.00
2,*Oc1ccc2c(c1)C(=O)N(c1ccc(C(=O)c3ccc(N4C(=O)c5ccc(*)cc5C4=O)cc3)cc1)C2=O (repeat unit),274.00
3,*Oc1cccc(S(=O)(=O)c2ccc(Oc3ccc4c(c3)C(=O)N(c3ccc(Oc5cccc(Oc6ccc(N7C(=O)c8ccc(*)cc8C7=O)cc6)c5)cc3)C4=O)cc2)c1 (repeat unit),194.00
4,*Oc1cccc(C(=O)c2ccc(Oc3cccc4c3C(=O)N(c3cccc(N5C(=O)c6cccc(*)c6C5=O)c3)C4=O)cc2)c1 (repeat unit),248.00
5,*c1ccc2c(c1)C(=O)N(c1ccc(Oc3ccc(P(=O)(c4ccccc4)c4ccc(Oc5cccc(N6C(=O)c7ccc(C(*)(C(F)(F)F)C(F)(F)F)cc7C6=O)c5)cc4)cc3)cc1)C2=O (repeat unit),220.00
6,*Oc1ccc2c(c1)C(=O)N(c1cccc(Oc3ccc(P(=O)(c4ccccc4)c4ccc(Oc5ccc(N6C(=O)c7ccc(*)cc7C6=O)cc5)cc4)cc3)c1)C2=O (repeat unit),240.00
7,*Oc1cccc(S(=O)(=O)c2ccc(Oc3cccc4c3C(=O)N(c3cccc(N5C(=O)c6cccc(*)c6C5=O)c3)C4=O)cc2)c1 (repeat unit),266.00
8,*Oc1cccc(C(C)(C)c2ccc(Oc3ccc4c(c3)C(=O)N(c3ccc(Oc5ccc(N6C(=O)c7ccc(*)cc7C6=O)cc5)cc3)C4=O)cc2)c1 (repeat unit),223.00
9,*Oc1cccc(Sc2ccc(Oc3cccc4c3C(=O)N(c3ccc(Oc5ccc(N6C(=O)c7cccc(*)c7C6=O)cc5)cc3)C4=O)cc2)c1 (repeat unit),234.00

# Remark: another data set of the same source
row,SMILES,glass transition temperature [°C]
1,*CC(*)(C)C(=O)OCCCCCCCC(C)C (repeat unit) [Poly(isodecyl methacrylate)],-41
2,*CC(*)C(=O)NC(C)CC (repeat unit) [Poly(N-sec-butylacrylamide)],117

# Remark: another data set of the same source
row,SMILES,glass transition temperature [°C]
1,*CC(*)c1ccccc1OCCCCCCCC (repeat unit) [Poly(o-n-octoxy styrene) ],12 ± 1.4
2,*CC(*)c1cccc(CO)c1 (repeat unit) [Poly(m-hydroxymethyl styrene) ],124.4 ± 0.7
3,*CC(*)(C)C(=O)OCC(C)C (repeat unit) [Poly(isobutyl methacrylate) ],47.4 ± 0.7
4,*CC(*)c1ccc(C(C)CC)cc1 (repeat unit) [Poly(p-sec-butyl styrene) ],85.4 ± 0.7
5,*CCCCCCO* (repeat unit) [Polyoxyhexamethylene ],-71.6 ± 3.5
6,*CC(*)c1ccc(OC)cc1C (repeat unit) [Poly(4-methoxy-2-methyl styrene) ],87.4 ± 3.5

# Remark: another data set of the same source
row,SMILES,glass transition temperature [°C]
1,*C=C(*)c1ccccc1 (repeat unit) [Poly(phenylacetylene)],51

# Remark: another data set of the same source
row,glass transition temperature [°C],SMILES
1,126.00,*c1ccc2c(c1)C(CCCCCCCC)(CCCCCCCC)c1cc(-c3ccc(-c4ccc(-c5ccc(*)s5)c5nsnc45)s3)ccc1-2 (repeat unit)
2,192.00,*c1ccc2c(c1)C(CCCCCCCC)(CCCCCCCC)c1cc(-c3ccc(-c4c(-c5ccccc5)c(-c5ccccc5)c(-c5ccc(*)s5)c5nc(-c6ccccc6)c(-c6ccccc6)nc45)s3)ccc1-2 (repeat unit)

# Second part, the compound before the results:
row,SMILES,glass transition temperature [°C]
1,*c1ccc2c(c1)N(CC(CCCCCCCC)CCCCCCCCCC)C(=O)/C2=C1/C(=O)N(CC(CCCCCCCC)CCCCCCCCCC)c2cc(-c3ccc(-c4ccc(*)s4)s3)ccc21 (repeat unit),65.00
2,*c1cc2c(s1)c1sc(-c3sc(-c4ccc(-c5cc(CCCCCC)c(*)s5)c5nsnc45)cc3CCCCCC)cc1n2CC(CC)CCCC (repeat unit),90.00
3,*c1ccc2c(c1)C(CCCCCCCC)(CCCCCCCC)c1cc(-c3ccc(-c4ccc(*)s4)s3)ccc1-2 (repeat unit),102.00
